Laboratory results as given in ChEMBL document CHEMBL1201862, “PubChem BioAssay data set” (2004).
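Assay format: 96-well plates, 48-hour exposure. GI50 marks 50% less growth.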 Calls of active or inactive are those of the source. Cut-off read from the data, not from the text of the source: active = GI50 up to about 1.1 µM and inactive = higher.

Assays:
Assay in all cases: DTP human tumour cell line panel, 48 h
DMS-114 = system: DMS-114
KM-20L2 = system: KM-20L2
LXFL 529 = system: LXFL 529
SNB-78 = system: SNB-78
DLD-1 = system: DLD-1
DMS-273 = system: DMS-273
HOP-18 = system: HOP-18
RXF 631 = system: RXF 631
XF498 = system: XF498

Measured: GI50

CC(=O)c1cccc(NC2C(N)C(NC(=O)N(C)C)(C(C)O)C(C)(O)C2(O)COC(=O)c2c(C)cccc2O)c1 (centres undefined)
active: DMS-114 0.01 µM | KM-20L2 0.01 µM | LXFL 529 0.01 µM | SNB-78 0.01 µM

COc1cccc(NC(=O)CC(=O)N2N=C(n3ccc4ccccc43)CC2c2ccccc2)c1 (centres undefined)
inactive: DLD-1 > 100 µM | DMS-114 > 100 µM | DMS-273 > 100 µM | HOP-18 > 100 µM | KM-20L2 > 100 µM | LXFL 529 > 100 µM | SNB-78 > 100 µM

C=C(COC(C)=O)CC(/C=C(\C)CC/C=C(\C)CO)OC(C)=O (centres undefined)
inactive: DLD-1 > 100 µM | DMS-273 > 100 µM | KM-20L2 > 100 µM | LXFL 529 > 100 µM | RXF 631 > 100 µM | SNB-78 > 100 µM | XF498 > 100 µM

O=C(O)C1=NN=C(C(=O)O)NN1
inactive: DLD-1 > 100 µM | DMS-273 > 100 µM | HOP-18 > 100 µM | KM-20L2 > 100 µM | LXFL 529 > 100 µM | SNB-78 > 100 µM

O=C(/C=C/c1ccc([N+](=O)[O-])o1)N1CCN(Cc2ccccc2)CC1
inactive: DLD-1 5.96 µM | DMS-114 12.2 µM | DMS-273 9.82 µM | HOP-18 22.6 µM | KM-20L2 10.9 µM | LXFL 529 6.56 µM | SNB-78 17.1 µM | XF498 16.7 µM

CC(=O)N1CC(=O)NC1=S
inactive: DLD-1 > 100 µM | DMS-114 > 100 µM | DMS-273 > 100 µM | KM-20L2 > 100 µM | LXFL 529 > 100 µM | SNB-78 > 100 µM | XF498 > 100 µM

CCC(=O)OC1CCn2c1nc1c2C(=O)C(C)=C(NC(C)=O)C1=N (centres undefined)
inactive: DLD-1 1.42 µM | DMS-114 1.5 µM | DMS-273 1.67 µM | HOP-18 1.8 µM | KM-20L2 1.73 µM | SNB-78 2.6 µM | XF498 2.65 µM

CN(C)CCS/C(=N\c1ccccc1)N1C=COC=C1
inactive: DLD-1 17.4 µM | DMS-114 14.6 µM | DMS-273 18.4 µM | HOP-18 59.8 µM | KM-20L2 47.1 µM | LXFL 529 16.4 µM | SNB-78 26.9 µM | XF498 31.2 µM

Nc1nc(Cl)cc(NCCCCCNc2cc(Cl)nc(N)n2)n1
inactive: DLD-1 > 100 µM | DMS-273 > 100 µM | HOP-18 > 100 µM | KM-20L2 > 100 µM | LXFL 529 26.9 µM | RXF 631 > 100 µM | SNB-78 31.3 µM

Cc1cccc(C)c1NC(=O)CCC/C(CC(=O)c1ccc(F)cc1)=N\NC(=O)C(=O)NN
inactive: DLD-1 > 100 µM | DMS-114 > 100 µM | DMS-273 > 100 µM | HOP-18 > 100 µM | KM-20L2 > 100 µM | LXFL 529 > 100 µM | RXF 631 > 100 µM | SNB-78 > 100 µM | XF498 > 100 µM

COC(=O)c1c2cccccc-2c(Cc2c3cccccc-3c(C(=O)OC)c2O)c1O
inactive: DLD-1 > 100 µM | DMS-114 > 100 µM | DMS-273 > 100 µM | HOP-18 > 100 µM | KM-20L2 > 100 µM | SNB-78 > 100 µM | XF498 > 100 µM

O=C(Cn1ccnc1[N+](=O)[O-])c1ccccc1
inactive: DLD-1 > 100 µM | DMS-273 > 100 µM | KM-20L2 > 100 µM | LXFL 529 > 100 µM | XF498 > 100 µM

CCOC(OCC)c1ccc(/C=C/c2cc(OC)c(OC)c(OC)c2)cc1
inactive: DLD-1 16.1 µM | DMS-114 20.7 µM | DMS-273 17.6 µM | HOP-18 61.4 µM | KM-20L2 18.7 µM | LXFL 529 16.1 µM | RXF 631 20 µM | SNB-78 27 µM

CC1Cc2c(N)nc(NN)nc2NC1=O (centres undefined)
inactive: DLD-1 > 100 µM | DMS-114 > 100 µM | DMS-273 > 100 µM | HOP-18 > 100 µM | KM-20L2 > 100 µM | XF498 3.94 µM

CC[N+](C)(CC)CC(C)(C)C(=O)/C=C/c1ccc(/C=C/C(=O)C(C)(C)C[N+](C)(CC)CC)cc1
inactive: DLD-1 > 100 µM | DMS-114 > 100 µM | DMS-273 > 100 µM | KM-20L2 > 100 µM | LXFL 529 > 100 µM | RXF 631 > 100 µM | SNB-78 > 100 µM

NC(=O)c1ccccc1NC(=O)C(=O)C(C(=O)c1ccc(Cl)c(Cl)c1)C1OC(=O)c2ccccc21 (centres undefined)
inactive: DLD-1 43.3 µM | DMS-273 36.2 µM | HOP-18 33.5 µM | KM-20L2 46.9 µM | LXFL 529 29.9 µM | SNB-78 39.2 µM | XF498 > 100 µM

CCOC(=O)/C(C#N)=C(O)/C(=C\c1ccc(Br)cc1)NC(=O)c1ccccc1
inactive: DLD-1 > 100 µM | DMS-114 > 100 µM | DMS-273 > 100 µM | HOP-18 > 100 µM | KM-20L2 > 100 µM | LXFL 529 > 100 µM | RXF 631 > 100 µM | SNB-78 > 100 µM

O=C1CC[C@@H](S(=O)(=O)c2ccccc2)[C@H](/C=C/c2ccccc2)O1
inactive: DMS-114 > 100 µM | HOP-18 > 100 µM | KM-20L2 > 10 µM | LXFL 529 > 100 µM
active: XF498 < 0.01 µM

CCN(CC)C(=S)SCC(=O)Nc1nc2c(s1)CCCC2
inactive: DLD-1 94 µM | DMS-114 67.8 µM | DMS-273 88.5 µM | KM-20L2 > 100 µM | LXFL 529 47.2 µM | SNB-78 > 100 µM | XF498 18.7 µM

Cn1cc2ccccc2c1-c1nc(F)nc(OCC(=O)[C@H]2CCC3[C@@H]4CCC5=CC(=O)CC[C@]5(C)C4[C@@H](O)C[C@@]32C)n1 (some centres undefined)
inactive: DLD-1 8.89 µM | DMS-114 7.52 µM | DMS-273 15.6 µM | HOP-18 15.5 µM | KM-20L2 26.1 µM | LXFL 529 3.72 µM | RXF 631 2.33 µM | SNB-78 13.2 µM | XF498 8.65 µM
